Earlier results as cited in patent US11471445B2, “Compositions for the prevention and treatment of acute renal injury” (AKI Therapeutics ApS, priority 2017, dated 2022).

What was measured:
[1] = 30 min after intravenous injection
[2] = tested on: IRI; conditions: in vivo
[3] = tested on: cerebral ischemia-reperfusion injury; conditions: mice
[4] = tested on: rat heart; conditions: pretreatment
[5] = tested on: hepatic IRI; conditions: rats, pretreatment

For CC(C)[C@]12O[C@H]1[C@@H]1O[C@]13[C@]1(O[C@H]1C[C@H]1C4=C(CC[C@@]13C)C(=O)OC4)[C@@H]2O [Triptolide], the water solubility is given as “very low water solubility”.

For “triptolide-lysozyme conjugate: Triptolide conjugated to lysozyme by an ester linkage with a succinic acid spacer”, the “renal concentration of conjugate relative to equivalent dose of drug” value [1] is listed as 20 fold.

For β-escin, the “effect on IRI / ischemia” value [2] is given as “ameliorates the effects of focal cerebral ischemia”.

In the case of COc1ccc([C@@H]2CC(=O)c3c(O)cc(O[C@@H]4O[C@H](CO[C@@H]5O[C@@H](C)[C@H](O)[C@@H](O)[C@H]5O)[C@@H](O)[C@H](O)[C@H]4O)cc3O2)cc1O [Hesperidin, hesperidin], the “effect on IRI / ischemia” value [2] is listed as “protective effects on IRI in various organs”.

For COc1ccc(-c2cc(=O)c3c(O)cc(O[C@@H]4O[C@H](CO[C@@H]5O[C@@H](C)[C@H](O)[C@@H](O)[C@H]5O)[C@@H](O)[C@H](O)[C@H]4O)cc3o2)cc1O [diosmin], the “effect on cerebral ischemia-reperfusion injury” value [3] is given as “ameliorates the consequences of IRI”, the “consequences of IRI in ex vivo rat heart” value [4] is given as “ameliorates the consequences of IRI” and the “consequences of hepatic IRI” value [5] is given as “ameliorates the consequences of IRI”.
